What all share (format): biochemical
In test [1] the target is lipase. Put plainly: lipase assay, 384-well LEADseeker format (YOx LEADseeker beads). The note with it: 30 nM lipase, room temperature, 60 minutes, read-out: IC50 inhibition of lipase activity. Here is the method: (§1) 384-well SPA and LEADseeker formats. 180 nM lipase substrate was added to streptavidin coated YSi beads at 10 mg/ml and 10% (v/v) Triton™ X-100 in the ratio of 2:3:1. Assays contained […] substrate precoated streptavidin YSi SPA beads or streptavidin yttrium oxide (YOx) LEADseeker beads (Amersham Pharmacia Biotech) (24 nM lipase substrate, 50 μg beads, 0.67% (v/v) Triton X-100), 30 nM lipase and assay buffer in a volume of 25 μl. In ‘no enzyme’ controls, approximately 6000 SPA cpm and 600 IOD's (Integrated Optical Density) were obtained. After incubation for 60 minutes at room temperature with agitation, assays were stopped by the addition of 25 μl 0.1M sodium citrate/citric acid, pH 4.0 and counted on either on a TopCount microplate scintillation counter (Packard Instruments Co., Meriden, Conn., USA) or imaged on LEADseeker (Amersham Pharmacia Biotech).
(§2) Miniaturization of the lipase assay to 384-well format using SPA and LEADseeker. Using a reduced assay volume an enzyme titration was performed with YSi SPA beads and YOx LEADseeker beads (FIG. 5). Different profiles were obtained using the two assay formats and this may be a result of how the substrate is presented on the surface of the two bead types.
(§3) 30 nM lipase was used and assays were incubated at room temperature for 60 minutes.

Test [2] concerns the target lipase. Nature of the test: lipase assay, 384-well SPA format (YSi SPA beads). The note with it: 30 nM lipase, room temperature, 60 minutes, read-out: IC50 inhibition of lipase activity. How it is done:
as §1, §2, §3

Test [3] deals with lipase. Nature of the test: lipase assay, 96-well SPA format, 'on bead'. The note with it: YSi beads, 5 nM lipase, room temperature, 60 minutes, read-out: IC50 inhibition of lipase activity. Here is the method: 96-well SPA format. Using an ‘on bead’ assay format, 180 nM lipase substrate (i.e. HSL substrate prepared by the method described in Example 1) was added to streptavidin coated yttrium silicate (YSi) beads (Amersham Pharmacia Biotech) at 5 mg/ml and 10% (v/v) Triton™ X-100 in the ratio of 1:3:2. Triton X-100 was added to prevent non-specific binding of the tritiated product to beads. Assays contained 20 μl substrate precoated SPA beads (6 nM lipase substrate, 50 μg beads, 0.67% (v/v) Triton X-100), 5 nM lipase and assay buffer (50 mM Hepes, pH 7.5, 1 mM dithioerythritol (DTE) and 0.001% (v/v) C13E12) in a volume of 100 μl. In ‘no enzyme’ controls, approximately 15000 SPA cpm were obtained. After incubation for 60 minutes at room temperature with agitation, assays were stopped by the addition of 100 μl 0.1M sodium citrate/citric acid, pH 4.0 and counted on a TopCount™ microplate scintillation counter (Packard Instruments Co., Meriden, Conn., USA).
Development of a lipase assay using a 96-well SPA assay format. Enzyme titrations were set up using ‘on’ and ‘off’ bead assay formats. In the ‘off’ bead format, the lipase substrate was not precoated onto SPA beads; instead the beads were added at the same time as the stop solution. […] It is thought that the binding of the substrate to the bead surface produced an artificial membrane environment necessary for optimal enzyme activity (FIG. 2). […]

For `CC[C@@H](C)[C@@H](O)[C@H](C)C(=O)[C@H](C)/C=C(\C)C[C@H](C)[C@@H]1OC(=O)[C@H]1CC` [Ebelactone B], the IC50 in test [1] is 18.2 µM; in test [2], 32.3 µM; in test [3], 27.5 µM.
